{"source": "patent US20080234345A1", "about": "“METHOD FOR REDUCING OR ALLEVIATING INFLAMMATION IN THE DIGESTIVE TRACT” (Gene Logic Inc., priority 2006, published 2008)", "key": {"[1]": {"tested_on": "DSS-induced NF-κB signaling", "assay": "Subsequent DSS study in NF-κB::Luc mice, oral gavage", "type": "in vivo", "details": "300 mg/kg/day, twice daily by oral gavage; 2.5% DSS", "excerpt": "In a subsequent study in NF-κB::Luc mice, 2.5% DSS treatment tended to increase NF-κB signaling, as measured by luciferase expression, in distal colon and mesenteric lymph tissues, although these increases were generally not statistically significant. […] Reasons for lack of effect of GL1001 in this study are not fully understood at present."}, "[2]": {"tested_on": "dextran sulfate sodium (DSS) induced colitis in mice", "assay": "DSS induced colitis in NF-κB::Luc mice (Example 5)", "type": "in vivo", "details": "100 mg/kg s.c. per day", "excerpt": "GL1001 was further tested for in vivo anti-inflammatory activity by examining its effects on dextran sulfate sodium (DSS) induced colitis in mice. […] See, e.g., Hollenbach et al. (2004) FASEB J. 18(13):1550-1552. See also Bryne et al. (2006), Current Opinion in Drug Discovery & Development 8(2):207-217 and sources cited therein. These pathologies include predominant left-sided colonic inflammation, prominent regeneration of the colonic mucosa cells with dysplasia leading to colon cancer, shortening of the large intestine, focal crypt damage, and frequent lymphoid hyperplasia in both biological systems. Further, according to Hollenbach et al (2004), supra, DSS-induced colitis in mice has a high value in assessing the efficacy of therapeutic agents commonly used in the treatment of colitis, since all therapeutically beneficial substances in human IBD were also shown to reduce the disease activity in this mouse model.\nThe study was designed with three groups: control (5 mice), 2.5% DSS alone (10 mice), and 2.5% DSS with GL1001 treatment (100 mg/kg subcutaneously per day) (10 mice). NF-κB::Luc mice were used to measure NF-κB activation as an indicator of inflammatory activity, as described above. In particular, organ specific luciferase activity was measured, in addition to body weight, fluid intake, occult fecal blood, organ weights and neutrophil infiltration (MPO assay). NF-κB::luc BL/6 albino background mice of 6-8 weeks of age were provided with 2.5% dextran sodium sulfate (DSS, MW 40,000; MP Biomedicals) in the drinking water. Mice were weighed, imaged and dosed with GL1001 daily. Fecal samples were collected from the bottom of the cages for each treatment group and tested for fecal consistency and occult blood using Hemocult Tape as directed by the manufacturer (Fisher Scientific) and fluid consumption was measured. At the conclusion of the study, the GI tract was removed, the various sections were cleaned and weighed, tissue samples were prepared for bioluminescent assays and myeloperoxidase (Myeloperoxidase assay kit, Cytostore) to look at neutrophil infiltration.\nThe mice were weighed and imaged at the time of daily GL1001 or vehicle control administration. Biophotonic images of the mice were acquired each day, as described above, with quantitative abdominal imaging results shown in FIG. 7. […] Water consumption was monitored for all of the animals and similar consumption rates indicate that DSS treated mice were all receiving similar amounts of DSS (FIG. 8).\nInflammatory bowel disease progression was monitored using an inflammatory bowel disease activity index which consists of the sum of percent weight loss, stool consistency and occult fecal blood divided by 3."}, "[3]": {"tested_on": "NF-κB dependent transcription", "assay": "TNFα-induced activation of NF-κB in recombinant HeLa reporter cells (luciferase)", "type": "cell-based", "excerpt": "To test the ACE2 inhibitor GL1001 for anti-inflammatory activity relevant to IBD, effects of the compound on activation of NF-κB dependent transcription by TNFα were examined in recombinant reporter cells containing a construct with a luciferase reporter gene under control of NF-κB dependent regulatory sequences, thereby allowing detection of NF-κB dependent transcription by measuring reporter enzyme using a conventional luciferase activity assay based on detection of generated light.\nIn particular, HeLa cells (American Type Culture Collection) were grown in Dulbecco's modified Eagles medium (DMEM) supplemented with 10% fetal calf serum and transiently transfected with an NF-κB-luc construct (Stratagene, Inc.), as follows (with all incubation steps at 37 C unless otherwise indicated). Cells were seeded and grown to about 70% confluency in a 10 cm cell culture dish. Plasmid DNA (10 μg) was added to 1 ml serum free DMEM media in a tube. Fugene 6 transfection reagent (30 μl) (Roche) was then pipetted slowly into the tube and the contents were gently mixed by inversion. The mixture was incubated at room temperature for 15 minutes and then added dropwise to cells in one 10 cm dish. Following incubation for 24 hours, cells were detached from the plate with Trypsin-EDTA (Gibco-BRL), transferred to wells in a clear-bottom white 96-well test plate (Fisher) with 100 μl per well serum free DMEM, at a density of 3×10^4 cells per well, and allowed to attach overnight. Compound (GL1001) was then added to wells at a concentration of approximately 0, 0.008, 0.04, 0.2, 1.0 or 5.0 μM, followed immediately by addition of TNFα (R&D) to a final concentration of 20 ng/ml. After incubation for 6 hours, 100 μl of Bright-Glo Luciferase buffer (Promega, Cat# E2610) was added, and the plate was incubated at room temperature, with mild shaking, for 10 min. Bioluminescence was then measured using a Veritas luminometer (Turner BioSystems). Each plotted data point represents the average bioluminescence of 4 independent wells."}, "[4]": {"tested_on": "DSS-induced colitis in Balb/c mice", "assay": "DSS-induced colitis in Balb/c mice (Example 7)", "type": "in vivo", "details": "s.c. b.i.d., GL1001 300 mg/kg", "experimental": "A study was designed with six groups of Balb/c mice: naïve control, DSS followed by vehicle, DSS followed by GL1001 30 mg/kg/day, DSS followed by GL1001 100 mg/kg/day, DSS followed by GL1001 300 mg/kg/day, and DSS followed by sulfasalazine 150 mg/kg/day. Administration of DSS was via drinking water, from day 1 to day 6 of the study. […] Administration of vehicle, GL1001 and sulfasalazine was subcutaneous, twice daily, from day 6 until termination of the study (day 16).\nBody weight of each animal was measured at days 1, 3 and 5 (pre-initiation of GL1001 or sulfasalazine treatment) and at days 7, 9, 11 and 13 (post-initiation of GL1001 or sulfasalazine treatment). On these same days, disease activity measurements were recorded, including: • (a) rectal prolapse (0=no prolapse, 1=partial prolapse, 2=moderate prolapse, 3=full prolapse); • (b) stool consistency (0=solid pellet, 1=semi-solid, 2=soft stool, 3=diarrhea); and • (c) fecal occult blood (0=no blood present, 1=occult blood, 2=gross blood).\nAt termination of the study, colon length was determined and histological analysis was conducted as in Example 6."}}, "data": [{"smiles": "CC(C)C[C@H](N[C@@H](Cc1cncn1Cc1cc(Cl)cc(Cl)c1)C(=O)O)C(=O)O", "note": "[GL1001, (S,S)-2-[1-carboxy-2-[3-(3,5-dichlorobenzyl)-3H-imidazol-4-yl]-ethylamino]-4-methylpentanoic acid]", "values": [{"measurement": "DSS-induced NF-κB signaling (luciferase expression)", "setting": "[1]", "result": "did not lower"}, {"measurement": "inflammatory bowel disease activity index", "setting": "[2]; between days 3 and 8", "result": "slight delay"}, {"measurement": "reduction in body weight", "setting": "[2]; between days 4 and 9, vs DSS only", "result": "significantly delayed"}, {"measurement": "NF-κB-driven luciferase expression, abdominal imaging, DSS only vs DSS+GL1001", "setting": "[2]; from study day 6", "result": "non-statistically significant divergence"}, {"measurement": "DSS induced organ weight increases (organ weight/body weight ratio)", "setting": "[2]; cecum and large intestine (colon)", "result": "completely prevented"}, {"measurement": "inhibition of TNFα induced activation of NF-κB dependent transcription", "setting": "[3]; 8 nM GL1001, TNFα 20 ng/ml, 6 hours", "result": "over 80%"}, {"measurement": "maximal inhibition of TNFα induced activation of NF-κB dependent transcription", "setting": "[3]; 0.2 μM GL1001, TNFα 20 ng/ml, 6 hours", "result": "over 95%"}, {"measurement": "TNFα induced activation of NF-κB dependent transcription", "setting": "[3]; all tested concentrations (0.008-5.0 μM)", "result": "significantly inhibited"}, {"measurement": "fecal occult blood", "setting": "[4]; day 7, sulfasalazine 150 mg/kg", "result": "reduces"}, {"measurement": "stool consistency", "setting": "[4]; day 7, sulfasalazine 150 mg/kg", "result": "reduces"}, {"measurement": "percentage weight loss", "setting": "[4]; day 9, sulfasalazine 150 mg/kg", "result": "reduces"}, {"measurement": "rectal prolapse", "setting": "[4]; day 9, sulfasalazine 150 mg/kg", "result": "reduces"}, {"measurement": "distal colon erosion score", "setting": "[4]", "result": "reduces"}, {"measurement": "distal colon crypt score", "setting": "[4]; sulfasalazine 150 mg/kg", "result": "reduces"}, {"measurement": "distal colon inflammation score", "setting": "[4]; sulfasalazine 150 mg/kg", "result": "reduces"}, {"measurement": "distal colon total histopathology score", "setting": "[4]; sulfasalazine 150 mg/kg", "result": "reduces"}, {"measurement": "reduction in colon length", "setting": "[4]; sulfasalazine 150 mg/kg", "result": "inhibits reduction"}]}]}
